The target in one assay is T1, human 5-LOX (Homo sapiens, UniProt P09917).
T1 construct: purchased Cayman 60402; host or cells: insect cells (lysate)
T1 sequence (P09917 1-674): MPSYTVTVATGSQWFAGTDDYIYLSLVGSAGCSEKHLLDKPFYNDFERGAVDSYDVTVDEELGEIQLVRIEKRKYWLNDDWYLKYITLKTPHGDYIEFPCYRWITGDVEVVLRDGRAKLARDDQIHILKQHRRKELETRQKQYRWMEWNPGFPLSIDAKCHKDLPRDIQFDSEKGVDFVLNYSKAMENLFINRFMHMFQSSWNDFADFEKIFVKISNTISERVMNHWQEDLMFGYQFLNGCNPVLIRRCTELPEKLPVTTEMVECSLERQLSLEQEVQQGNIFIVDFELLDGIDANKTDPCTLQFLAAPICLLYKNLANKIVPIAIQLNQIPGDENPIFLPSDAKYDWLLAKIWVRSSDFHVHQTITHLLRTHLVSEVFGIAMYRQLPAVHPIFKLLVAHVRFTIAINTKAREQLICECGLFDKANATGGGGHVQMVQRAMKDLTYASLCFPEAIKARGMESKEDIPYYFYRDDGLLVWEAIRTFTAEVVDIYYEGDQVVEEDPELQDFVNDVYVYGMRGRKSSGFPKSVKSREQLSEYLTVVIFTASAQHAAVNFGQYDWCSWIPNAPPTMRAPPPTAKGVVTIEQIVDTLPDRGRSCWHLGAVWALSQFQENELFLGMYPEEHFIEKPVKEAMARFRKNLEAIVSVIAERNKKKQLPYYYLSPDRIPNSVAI
The experiment in a line: 5-LOX enzyme activity, fluorescence method (5-HPETE, H2DCFDA). It counts as biochemical. As to conditions: read-out: 5-LO (IC50). Put shortly: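 Fluorescence-based read-out, run entirely at room temperature. Enzyme mixture was exposed to a dose range of compound from 0.5 nM to 10 uM for 5 min before ATP and arachidonic acid were added to final levels of 100 uM and 3 uM.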

Assay [1] deals with Rat basophilic leukemia (RBL) cells. In words: LTB4 secretion assay in RBL (rat basophilic leukemia cells). To be noted: Rattus norvegicus, RBL. Type of assay: cell-based. Put shortly: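 LTB4 released into supernatant was measured by EIA after 10 min at 37 °C with arachidonic acid (2.5 uM final) and calcium ionophore A23187 (5 uM final). Before stimulation, cells plated 2×10^4/well overnight received compound doses (5 nM to 100 uM) for 15 min in 0.5% FBS medium.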

The record followed here is patent US11447486B2, “2-amino-benzimidazole derivatives and their use as 5-lipoxygenase and/or prostaglandin E synthase inhibitors” (INSTITUT PASTEUR KOREA, priority 2014, dated 2022).

Where only a bound is given, the exact number is not on record here.

For orientation: IC50 means the point on the concentration scale where inhibition reaches its midpoint. As a reminder, the EC50 is the concentration giving half of the maximal effect. Low readings indicate an effect from little substance, high ones a need for much substance. Regarding `Cn1c(NCc2ccc(Oc3cnc(Cl)nc3)cc2)nc2ccc(N)cc21` [Compound 340], the IC50 at human 5-LOX is less than 1 µM. In assay [1], this compound returned an EC50 of less than 10 µM.
As to `CN(C)c1nc2ccc(NCc3ccc(-c4cccc(=O)[nH]4)cc3)cc2[nH]1` [Compound 221], the IC50 at human 5-LOX was less than 1 µM. The compound also returned an EC50 in assay [1] of more than 20 µM.
On the same counts, the results for `Cn1c(NCc2ccc(Oc3ccc(Cl)cn3)cc2)nc2ccc(NC3CNC3)cc21` [Compound 401] are less than 1 µM and less than 10 µM.
For the compound `CCN(c1ccc2nc(NCc3ccc(Oc4ccc(Cl)cn4)cc3)n(C)c2c1)C1COC1` [Compound 278], the IC50 on human 5-LOX is less than 1 µM. In assay [1], this compound returned an EC50 of less than 10 µM.
Turning to `Cn1c(NCc2ccc(Oc3ncc(-c4ccc(Cl)cc4)cn3)cc2)nc2ccc(N)cc21` [Compound 460], the IC50 at human 5-LOX was less than 1 µM. The compound further yielded an EC50 in assay [1] of less than 10 µM.
Take `Cn1c(NCc2ccc(Oc3cccnc3)cc2)nc2ccc(N)cc21` [Compound 224]: the IC50 on human 5-LOX is less than 1 µM. Besides, in assay [1], the EC50 was less than 10 µM.
On the same counts, the results for `Nc1ccc2nc(NCCO)n(Cc3ccc(Oc4ccc(Cl)cn4)cc3)c2c1` [Compound 250] are less than 1 µM and less than 10 µM.
For `Cn1c(NCc2ccc(Oc3ccc(Cl)cn3)cc2)nc2ccc(N)cc21` [Compound 210], in that order: less than 1 µM and less than 10 µM.
Take `COC(=O)c1ccc(CNc2ccc3nc(N(C)C)[nH]c3c2)cc1` [Compound 179]: the IC50 at human 5-LOX was less than 1 µM. The EC50 in assay [1] was less than 10 µM.
Regarding `Cn1c(N2CCC(COc3ccc(Cl)cc3)CC2)nc2ccc(N)cc21` [Compound 163], the IC50 at human 5-LOX is less than 1 µM. In assay [1], this compound displayed an EC50 of more than 20 µM.
In the case of `Cn1c(NCc2ccc(Oc3nccc4cc(Cl)ccc34)cc2)nc2ccc(NC3COC3)cc21` [Compound 439], the half-maximal inhibitory concentration (IC50) at human 5-LOX was less than 1 µM. In assay [1], this compound returned an EC50 of 10 to 20 µM.
Consider `Cc1cc(Nc2ccc3nc(NCc4ccc(Oc5ncc(-c6ccc(Cl)cc6)cn5)cc4)n(C)c3c2)n[nH]1` [Compound 467], for which the IC50 at human 5-LOX is less than 1 µM. In assay [1], the EC50 is less than 10 µM.
As to `NC(=O)CNc1nc2ccc(N)cc2n1Cc1ccc(Oc2ccc(Cl)cc2)cc1` [Compound 217], the IC50 on human 5-LOX was less than 1 µM. The EC50 in assay [1] was less than 10 µM.
Turning to `Cn1c(NCc2ccc(Oc3ccc(C(F)(F)F)nc3)cc2)nc2ccc(N)cc21` [Compound 223], the IC50 at human 5-LOX was less than 1 µM. Also, the EC50 in assay [1] was less than 10 µM.
On to `Cn1c(NCc2ccc(Oc3ncc4c(Cl)cccc4n3)cc2)nc2ccc(N)cc21` [Compound 434], for which the IC50 on human 5-LOX was less than 1 µM. The compound also displayed an EC50 in assay [1] of less than 10 µM.
Turning to `Cn1c(NCc2ccc(Oc3ccc(Cl)cn3)cc2)nc2ccc(NCCO)cc21` [Compound 313], at human 5-LOX, the IC50 was less than 1 µM. In addition, the EC50 in assay [1] was less than 10 µM.
With `CC(Cc1ccc(Cl)cc1Cl)Nc1nc2ccc(N)cc2n1Cc1ccccc1` (centres unmarked) [Compound 140], the IC50 on human 5-LOX is less than 1 µM. In assay [1], the EC50 was less than 10 µM.
For `CC(C)(O)Cn1c(NCc2ccc(Oc3ccc(Cl)cc3)cc2)nc2ccc(N)cc21` [Compound 209], in that order: less than 1 µM and less than 10 µM.
As to `COc1cc(Oc2ccc(Cl)cn2)ccc1CNc1nc2ccc(N)cc2n1C` [Compound 327], the IC50 on human 5-LOX was less than 1 µM. Besides, in assay [1], the EC50 is less than 10 µM.
On to `CN(C)c1nc2cc(NC3COC3)ccc2n1CCOc1ccc(Cl)cc1` [Compound 41], for which, on human 5-LOX, the IC50 lay in the range of 1 to 10 µM. The same compound came in with an EC50 in assay [1] of 10 to 20 µM.
Regarding `COC(=O)c1ccc(OC2CCN(c3ccc4[nH]c(N(C)C)nc4c3)C2)cc1` (centres unmarked) [Compound 194], the IC50 at human 5-LOX is less than 1 µM. This compound also showed an EC50 in assay [1] of less than 10 µM.
Take `Cn1c(NCc2ccc(C(=O)Nc3ccc(Cl)cn3)cc2)nc2ccc(N)cc21` [Compound 310]: the IC50 on human 5-LOX was less than 1 µM. Besides, the EC50 in assay [1] is more than 20 µM.
For the compound `Cn1c(NCc2ccc(Oc3ncc4cccc(Cl)c4n3)cc2)nc2ccc(NC3COC3)cc21` [Compound 437], at human 5-LOX, the IC50 was less than 1 µM. The EC50 in assay [1] was less than 10 µM.
Consider `CN(C)c1nc2cc(N3CCCC(Oc4ccc(OC(F)(F)F)cc4)C3)ccc2[nH]1` (centres unmarked) [Compound 183], for which the IC50 at human 5-LOX was less than 1 µM. The compound also yielded an EC50 in assay [1] of more than 20 µM.
For `CN(C(=O)c1ccc(CNc2nc3ccc(N)cc3n2C)cc1)c1ccc(Cl)cn1` [Compound 319], in that order: less than 1 µM and more than 20 µM.
Turning to `COCCn1c(NCc2ccc(Oc3ccc(Cl)cn3)cc2)nc2ccc(N)cc21` [Compound 263], on human 5-LOX, the IC50 is less than 1 µM. This compound also yielded an EC50 in assay [1] of 10 to 20 µM.
`Cn1c(NCc2ccc(Oc3ccccn3)cc2)nc2ccc(NC3COC3)cc21` [Compound 347]: the IC50 at human 5-LOX was less than 1 µM. Moreover, in assay [1], the EC50 is less than 10 µM.
Consider `Cn1c(NCc2ccc(Oc3nccc(C(F)(F)F)n3)cc2)nc2ccc(N)cc21` [Compound 363], for which the IC50 at human 5-LOX is less than 1 µM. In assay [1], this compound came in with an EC50 of more than 20 µM.
For `Cn1c(NCc2ccc(Oc3ncc(C(F)(F)F)cn3)cc2)nc2c(F)cc(NC3COC3)cc21` [Compound 551], in that order: less than 1 µM and less than 10 µM.
As for `Cn1c(NCc2ccc(Oc3ccc(Cl)cn3)cc2)nc2ccc(NC(C)(C)C(=O)O)cc21` [Compound 326], the IC50 at human 5-LOX was less than 1 µM. In addition, the EC50 in assay [1] is less than 10 µM.
In the case of `CC(C)c1cc(CNc2nc3ccc(NC4COC4)cc3n2C)ccc1Oc1ncc(Cl)cn1` [Compound 396], the IC50 at human 5-LOX was less than 1 µM. In assay [1], this compound came in with an EC50 of less than 10 µM.
Take `Cn1c(NCc2ccc(Oc3ccc4cccc(Cl)c4n3)cc2)nc2ccc(NC3COC3)cc21` [Compound 422]: the IC50 at human 5-LOX is less than 1 µM. In assay [1], this compound yielded an EC50 of less than 10 µM.
For `Nc1ccc2nc(N)n(Cc3ccc(Oc4nc5ccccc5o4)cc3)c2c1` [Compound 246], at human 5-LOX, the IC50 was less than 1 µM. Moreover, in assay [1], the EC50 was less than 10 µM.
With `Cn1c(NCc2ccc(Oc3ncc(Cl)cc3Cl)cc2)nc2ccc(N)cc21` [Compound 321], the IC50 on human 5-LOX was less than 1 µM. Moreover, in assay [1], the EC50 was 10 to 20 µM.
For `c1ccc(Oc2ccc(CNc3nc4cc(NC5CCC5)ccc4[nH]3)cc2)cc1` [Compound 96], in that order: less than 1 µM and less than 10 µM.
For `Nc1ccc2[nH]c(N3CCC(Oc4ccc(OC(F)(F)F)cc4Cl)C3)nc2c1` (centres unmarked) [Compound 71], in that order: less than 1 µM and 10 to 20 µM.
On the same counts, the results for `Cc1ccc(Oc2ccc(CNc3nc4ccc(N)cc4n3C)cc2)nc1` [Compound 352] are less than 1 µM and less than 10 µM.
Regarding `CCN(CC)c1nc2cc(N)ccc2n1CCc1ccc(F)cc1` [Compound 47], the IC50 on human 5-LOX is more than 10 µM. In assay [1], this compound yielded an EC50 of more than 20 µM.
Take `Cn1c(NCc2ccc(Oc3ncc(Cl)c4ccccc34)cc2)nc2ccc(N)cc21` [Compound 399]: at human 5-LOX, the IC50 was less than 1 µM. The same compound gave an EC50 in assay [1] of less than 10 µM.
As for `Cn1c(NCc2ccc(Oc3ccc(Cl)cn3)cc2)nc2ccc(NC3CN(C(N)=O)C3)cc21` [Compound 404], at human 5-LOX, the concentration for half-maximal inhibition (IC50) was less than 1 µM. Also, in assay [1], the EC50 was more than 20 µM.
With `Cn1c(NCc2ccc(Oc3cn4ccc(Cl)cc4n3)cc2)nc2ccc(NC3COC3)cc21` [Compound 455], the IC50 at human 5-LOX was less than 1 µM. The EC50 in assay [1] is less than 10 µM.
As to `Cn1c(NCc2ccc(Oc3ccc(Cl)cc3)cc2)nc2ccc(N)cc21` [Compound 167], the IC50 at human 5-LOX was less than 1 µM. Further, the EC50 in assay [1] is more than 20 µM.
As to `CN(C)c1nc2ccc(NCc3ccc(N(CC(N)=O)c4ccc(F)cc4)cc3)cc2[nH]1` [Compound 212], at human 5-LOX, the IC50 is less than 1 µM. The EC50 in assay [1] was less than 10 µM.
